Measured values taken from article PMC3412845, “Waking Action of Ursodeoxycholic Acid (UDCA) Involves Histamine and GABAA Receptor Block” (PLoS ONE, 2012).

How the values were obtained:
[1] = tested on: HDC+/+ mice; test: Polygraphic (EEG/EMG) sleep-wake recording in wild type mice; format: in vivo, mouse
Protocol: Animal experiments were conducted according to the Animal Protection Law of the Federal Republic of Germany and the local guidelines (Bezirksregierung Duesseldorf) and were in accordance with the European Communities Council directive regarding care and use of animals for experimental procedures (86/609/EEC). The general protocol of sleep-wake recording and experiment in the mouse was approved by the ethic committee of Claude Bernard University of Lyon. All efforts were made to minimize the number of animals and their suffering. At the age of 12 weeks and with a body weight of 30±2 g HDC wild type and knockout mice used for EEG and sleep-wake studies were chronically implanted, under deep gas anesthesia using isoflurane (2%, 200 ml/min) and a TEM anesthesia system (Bordeaux, France), with six cortical electrodes (gold-plated tinned copper wire, Ø = 0.4 mm, Filotex, Draveil, France) and three neck muscle electrodes (fluorocarbon-coated gold-plated stainless steel wire, Ø = 0.03 mm, Cooner Wire Chatworth, CA, U.S.A.) to record the electroencephalogram (EEG) and electromyogram (EMG) and to monitor the sleep-wake cycle. Finally, the electrode assembly was anchored and fixed to the skull with Super-Bond (Sun Medical Co., Shiga, Japan) and dental cement. This implantation allows stable and long-lasting polygraphic recordings.
After surgery, the animals were housed individually in barrels placed in an insulated sound-proof recording room maintained at an ambient temperature of 22±1°C and on a 12 h light/dark cycle (lights-on at 7 a.m.), standard food and water being available ad libitum. After a 7-days recovery period, mice were habituated to the recording cable for 7 days before polygraphic recordings were started. Cortical EEG (contralateral frontoparietal leads) and EMG signals were amplified, digitized with a resolution of 256 and 128 Hz, respectively, and computed on a CED 1401 Plus (Cambridge, UK). Using a Spike2 script and with the assistance of spectral analysis using the fast Fourier transform, polygraphic records were visually scored by 30-sec epochs for wakefulness (W), slow wave sleep (SWS), and paradoxical sleep (PS) according to previously described criteria validated for mice.
Animals were subjected to 12 h sleep-wake recordings following administration of URSOFALK (clinically used UDCA, 32 mg/kg) through the oral route (per os) at 10 a.m. (during the sleepy period) or at 7 p.m. (during the active period). Each animal received twice single dose of UDCA and twice equal volume of vehicle. There was an interval of 7 days between any two administrations. UDCA or vehicle was applied at random. The waking, slow wave sleep or paradoxical sleep amounts were compared between vehicle and UCDA within the same animal, the differences being averaged within the groups. […]

[2] = tested on: TGR5; parameters: method as in PMID 12524422; conditions: cited from earlier work
[3] = UDCA 32 mg/kg per os at 7 p.m., vs vehicle

**Q.** With `C[C@H](CCC(=O)O)[C@H]1CC[C@H]2[C@@H]3[C@@H](O)C[C@@H]4C[C@H](O)CC[C@]4(C)[C@H]3CC[C@]12C` [UDCA, ursodeoxycholic acid] as the compound, how does the sleep wake states ([1]; 32 mg/kg orally at 10 a.m. (quiet period)) read?
**A.** did not affect

**Q.** What about the waking ([1]; UDCA 32 mg/kg per os at 7 p.m. (active period), vs vehicle, n = 11) of the same compound?
**A.** significantly increased

**Q.** And the “amount of paradoxical sleep (PS)” value [1, 3]?
**A.** decreased

**Q.** And the “amount of slow wave sleep (SWS)” value [1, 3]?
**A.** decreased

**Q.** What about the “sensitivity of TGR5 to UDCA” value [2] of the same compound?
**A.** rather insensitive
